Assay results reported in US20110159019A1, “2,4-DIAMINOPYRIMIDINE COMPOUND” (priority 2008, published 2011).
Structures can show the parent of a compound that is named as a salt.

Target: T1, Full-length human PKCθ (Homo sapiens, UniProt Q04759)
T1 construct: Full-length human PKCθ (Carna Biosciences, final 31 ng/mL); purchased Carna Biosciences
Experiment: Measurement of human PKCθ enzyme inhibition activity (HTRF KinEASE S1 kit)
Format: biochemical
Settings: full-length human PKCθ, ATP 30 μM, HTRF; read-out: IC50 (nM), human PKCθ enzyme inhibition
Procedure: Test Method 1: Measurement of Human PKCθ Enzyme Inhibition Activity
The test was carried out using a HTRF® KinEASE™ S1 kit (CIS bio). […] Then, 3 μL of an ATP liquid (final 30 μM) was dispensed therein to carry out an enzyme reaction at room temperature for 1 hour.
Ex represents Compound No. of Examples as described later.

T1 sequence (Q04759 whole entry): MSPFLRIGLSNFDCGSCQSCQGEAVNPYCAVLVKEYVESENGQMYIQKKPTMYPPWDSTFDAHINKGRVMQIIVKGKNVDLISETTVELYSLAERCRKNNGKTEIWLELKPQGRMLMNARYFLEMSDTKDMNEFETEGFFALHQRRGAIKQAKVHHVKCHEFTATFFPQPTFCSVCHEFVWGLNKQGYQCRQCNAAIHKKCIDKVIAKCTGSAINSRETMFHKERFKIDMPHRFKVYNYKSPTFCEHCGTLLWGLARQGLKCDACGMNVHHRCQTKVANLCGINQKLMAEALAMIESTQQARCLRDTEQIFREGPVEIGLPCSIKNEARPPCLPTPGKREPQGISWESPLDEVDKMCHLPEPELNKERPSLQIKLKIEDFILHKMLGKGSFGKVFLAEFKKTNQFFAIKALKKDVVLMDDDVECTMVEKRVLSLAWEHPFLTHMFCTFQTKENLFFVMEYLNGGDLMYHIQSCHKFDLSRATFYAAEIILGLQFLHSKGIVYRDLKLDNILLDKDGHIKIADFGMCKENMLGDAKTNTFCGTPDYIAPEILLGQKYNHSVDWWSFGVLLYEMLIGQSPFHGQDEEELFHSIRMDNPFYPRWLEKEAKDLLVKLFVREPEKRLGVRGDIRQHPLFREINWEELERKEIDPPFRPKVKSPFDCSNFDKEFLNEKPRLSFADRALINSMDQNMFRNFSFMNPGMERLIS

| IC50 [nM] | SMILES |
| --- | --- |
| 0.064 | N#Cc1cnc(NCc2ccccc2OC(F)(F)F)nc1NC[C@]12CC3C[C@H](C1)[C@@H](NC1CCC(N4CCC[C@H]4CO)CC1)[C@@H](C3)C2 (relative stereo) [Example 240] |
| 0.31 | CC(C)N1CCC(N[C@@H]2[C@@H]3CC4C[C@H]2C[C@@](CNc2nc(NCc5ccccc5OC(F)(F)F)ncc2C#N)(C4)C3)CC1 (relative stereo) [Example 246] |
| 3.3 | N[C@@H]1[C@@H]2CC3C[C@H]1C[C@@](CNc1nc(NCc4ccccc4OC(F)(F)F)ncc1[N+](=O)[O-])(C3)C2 (relative stereo) [Example 388] |
| 0.65 | N#Cc1cnc(NCc2ccccc2OC(F)(F)F)nc1NC[C@]12CC3C[C@H](C1)[C@@H](NC1CCOCC1)[C@@H](C3)C2 (relative stereo) [Example 74] |
| 11 | N#Cc1cnc(NCc2ccccc2Cl)nc1NC[C@]12CC3C[C@H](C1)[C@@H](NCC(=O)N1CCC(O)CC1)[C@@H](C3)C2 (relative stereo) [Example 204] |
| 1.3 | N#Cc1cnc(NCc2ccccc2Cl)nc1NC[C@]12CC3C[C@H](C1)[C@@H](NCCCO)[C@@H](C3)C2 (relative stereo) [Example 28] |
| 1.7 | N#Cc1cnc(NCc2ccccc2Cl)nc1NC[C@]12CC3C[C@H](C1)[C@@H](NC[C@H]1CC[C@H](CO)CC1)[C@@H](C3)C2 (relative stereo) [Example 341] |
| 29 | N#Cc1cnc(NCc2ccccc2OC(F)(F)F)nc1NCC1[C@@H]2CC3C[C@H]1C[C@@](CN)(C3)C2 (some centres unmarked) [Example 183] |
| 0.41 | N#Cc1cnc(NCc2ccccc2OC(F)F)nc1NC[C@]12CC3C[C@H](C1)[C@@H](NC[C@H]1CC[C@H](O)CC1)[C@@H](C3)C2 (relative stereo) [Example 348] |
| 2.3 | N#Cc1cnc(NCc2ccccc2OC(F)(F)F)nc1NC[C@]12CC3C[C@H](C1)[C@@H](NCc1cccnc1)[C@@H](C3)C2 (relative stereo) [Example 76] |
| 0.58 | C[C@]1(O)CC[C@H](CN[C@@H]2[C@@H]3CC4C[C@H]2C[C@@](CNc2nc(NCc5ccccc5OC(F)(F)F)ncc2C#N)(C4)C3)CC1 (relative stereo) [Example 363] |
| 0.7 | C[C@]1(O)CC[C@@H](CN[C@@H]2[C@@H]3CC4C[C@H]2C[C@@](CNc2nc(NCc5ccccc5OC(F)F)ncc2C#N)(C4)C3)CC1 (relative stereo) [Example 371] |
| 1.9 | CSc1ccccc1CNc1ncc(C#N)c(NC[C@]23CC4C[C@H](C2)[C@@H](NC[C@H]2CC[C@@H](O)CC2)[C@@H](C4)C3)n1 (relative stereo) [Example 264] |
| 1.2 | N#Cc1cnc(NCc2ccccc2Cl)nc1NC[C@]12CC3C[C@H](C1)[C@@H](NCC1CCN(CC(F)F)CC1)[C@@H](C3)C2 (relative stereo) [Example 357] |
| 2.1 | N[C@@H]1[C@@H]2CC3C[C@H]1C[C@@](CNc1nc(NCc4ccccc4OC(F)(F)F)ncc1F)(C3)C2 (relative stereo) [Example 390] |
| 0.28 | N#Cc1cnc(NCc2ccccc2OC(F)(F)F)nc1NC[C@]12CC3C[C@H](C1)[C@@H](N[C@H]1CC[C@@H](NC4CCOCC4)CC1)[C@@H](C3)C2 (relative stereo) [Example 284] |
| 1.1 | N#Cc1cnc(NCc2ccccc2Cl)nc1NC[C@]12CC3C[C@H](C1)[C@@H](N[C@H]1CC[C@H](O)CC1)[C@@H](C3)C2 (relative stereo) [Example 60] |
| 1.6 | N#Cc1cnc(NCc2ccccc2Cl)nc1NC[C@]12CC3C[C@H](C1)[C@@H](NCCN1CCC(O)CC1)[C@@H](C3)C2 (relative stereo) [Example 208] |
| 6.5 | COc1ccccc1CNc1ncc(C#N)c(NC[C@]23CC4C[C@H](C2)[C@@H](NCC(CO)CO)[C@@H](C4)C3)n1 (relative stereo) [Example 194] |
| 0.48 | CSc1ncccc1CNc1ncc(C#N)c(NC[C@]23CC4C[C@H](C2)[C@@H](NC[C@H]2CC[C@H](CO)CC2)[C@@H](C4)C3)n1 (relative stereo) [Example 342] |

Continued, compound first:

| SMILES | IC50 [nM] |
| --- | --- |
| N#Cc1cnc(NCc2cccnc2Cl)nc1NC[C@]12CC3C[C@H](C1)[C@@H](N)[C@@H](C3)C2 [Example 165] | 2.3 |
| N#Cc1cnc(NCc2ccccc2OC(F)(F)F)nc1NC[C@]12CC3C[C@H](C1)C[C@@](CN)(C3)C2 [Example 57] | 15 |
| N#Cc1cnc(NCc2ccccc2Cl)nc1NC[C@]12CC3C[C@H](C1)[C@@H](NC1CCN(C(=O)CO)CC1)[C@@H](C3)C2 [Example 205] | 0.83 |
| N#Cc1cnc(NCc2ccccc2OC(F)(F)F)nc1NCC1CN2CCC1CC2 (centres unmarked) [Example 48] | 54 |
| N[C@@H]1[C@@H]2CC3C[C@H]1C[C@@](CNc1nc(NCc4ccccc4OC(F)(F)F)ncc1C(F)(F)F)(C3)C2 (relative stereo) [Example 178] | 7.6 |
| N#Cc1cnc(NCc2ccccc2OC(F)(F)F)nc1NC[C@@H]1CC[C@@H](N)C1 [Example 126] | 100 |
| N#Cc1cnc(NCCc2cccc(Cl)c2)nc1NC[C@]12CC3C[C@H](C1)[C@@H](N)[C@@H](C3)C2 (relative stereo) [Example 292] | 10 |
| N#Cc1cnc(NCc2cccc(Cl)c2Cl)nc1NC[C@]12CC3C[C@H](C1)[C@@H](N)[C@@H](C3)C2 (relative stereo) [Example 140] | 2.5 |
| N#Cc1cnc(NCc2ccccc2Cl)nc1NC[C@]12CC3C[C@H](C1)C(N1CCNCC1)[C@@H](C3)C2 (some centres unmarked) [Example 319] | 4 |
| N#Cc1cnc(NCCc2ccc(O)cc2)nc1NC[C@]12CC3C[C@H](C1)[C@@H](N)[C@@H](C3)C2 [Example 145] | 1.6 |
| N#Cc1cnc(NCc2ccccc2Cl)nc1NC[C@]12CC3C[C@H](C1)[C@@H](NC1CCNCC1F)[C@@H](C3)C2 (relative stereo) [Example 383] | 1.6 |
| COc1ccc(Cl)c(CNc2ncc(C#N)c(NC[C@]34CC5C[C@H](C3)[C@@H](N)[C@@H](C5)C4)n2)c1 (relative stereo) [Example 150] | 5.3 |
| N#Cc1cnc(NCc2ccccc2Cl)nc1NC[C@]12CC3C[C@H](C1)C(N1CCC(N)CC1)[C@@H](C3)C2 (relative stereo) [Example 318] | 0.86 |
| CC(Nc1ncc(C#N)c(NC[C@]23CC4C[C@H](C2)[C@@H](N)[C@@H](C4)C3)n1)c1ccccc1Cl (relative stereo) [Example 302] | 14 |
| N#Cc1cnc(NCc2ccccc2OC(F)(F)F)nc1NCCC(=O)N1CCCNCC1 [Example 387] | 77 |
| N#Cc1cnc(NCc2ccccc2OC(F)(F)F)nc1NC[C@H]1C[C@H](N)C1 [Example 125] | 89 |
| N#Cc1cnc(NCc2ccccc2OC(F)(F)F)nc1NCC1CC2CCC(C1)N2 (centres unmarked) [Example 170, 4-[(8-azabicyclo[3.2.1]oct-3-ylmethyl)amino]-2-{[2-(trifluoromethoxy)benzyl]amino}pyrimidine-5-carbonitrile dihydrochloride] | 110 |
| N#Cc1cnc(Nc2cccc(Br)c2)nc1NC[C@]12CC3C[C@H](C1)[C@@H](N)[C@@H](C3)C2 [Example 187] | 3.8 |
| COc1ccc(CO)cc1CNc1ncc(C#N)c(NC[C@]23CC4C[C@H](C2)[C@@H](N)[C@@H](C4)C3)n1 [Example 139] | 13 |
| N#Cc1cnc(NCc2ccccc2Cl)nc1NC[C@]12CC3C[C@H](C1)[C@@H](N1CC(O)C1)[C@@H](C3)C2 [Example 211] | 0.96 |
| N#Cc1cnc(NCc2ccccc2OC(F)(F)F)nc1NCCC(=O)N1CCNCC1 [Example 156] | 67 |
